For one data set, the system named is Mus musculus. As to the kind of experiment: Inhibition of Aurora B-mediated histone H3 phosphorylation in nude mouse xenografted with human A2780 cells at 100 mg/kg, po administered as single dose measured 2 hrs. It is filed as functional. The conditions noted are these: A2780, 2 h. A general note: Xenograft models place foreign cells or tissue in a host animal.

A short description of data set [1]: Clearance in cynomolgus monkey at 1 mg/kg, iv. It is filed as ADME, organism-based, Macaca fascicularis. More on the design: dose 1 mg/kg, route intravenous. The conditions noted are these: in vivo.
Data set [2] concerns Canis familiaris. Nature of the data set: (§1) AUC (0 to 24 hrs) in Beagle dog at 10 mg/kg, po. It is filed as ADME, organism-based, Canis lupus familiaris, Plasma. More on the design: time < 24 hr, dose 10 mg/kg, route oral. The conditions noted are these: in vivo, 24 h.
A short description of data set [3]: Clearance in Beagle dog at 1 mg/kg, iv. It is filed as ADME, organism-based, Canis lupus familiaris. More on the design: dose 1 mg/kg, route intravenous. The conditions noted are these: in vivo.
Data set [4] concerns Canis familiaris. As to the kind of experiment: AUC (0 to 24 hrs) in Beagle dog at 1 mg/kg, iv. The conditions noted are these: in vivo. More on the design: time < 24 hr, dose 1 mg/kg, route intravenous. It is filed as ADME, organism-based, Canis lupus familiaris, Plasma.
The test system of data set [5] is Canis familiaris. Nature of the data set: (§2) Oral bioavailability in Beagle dog at 10 mg/kg. It is filed as ADME, organism-based, Canis lupus familiaris. The conditions noted are these: in vivo.
A short description of data set [6]: Clearance in cynomolgus monkey at 0.3 mg/kg, iv. It is filed as ADME, organism-based, Macaca fascicularis. More on the design: dose 0.3 mg/kg, route intravenous. The conditions noted are these: in vivo.
Data set [7] can be described thus: AUC (0 to 24 hrs) in cynomolgus monkey at 0.3 mg/kg, iv. It is filed as ADME, organism-based, Macaca fascicularis. More on the design: time < 24 hr, dose 0.3 mg/kg, route intravenous. The conditions noted are these: plasma.
Data set [8] in a line: as §1. The conditions noted are these: beagle, plasma. It is filed as ADME, organism-based, Canis lupus familiaris, Plasma. More on the design: time < 24 hr, dose 10 mg/kg, route oral.
The nature of data set [9]: Clearance in Beagle dog at 0.3 mg/kg, iv. It is filed as ADME, organism-based, Canis lupus familiaris. The conditions noted are these: in vivo. More on the design: dose 0.3 mg/kg, route intravenous.
Data set [10] can be described thus: AUC (0 to 24 hrs) in Beagle dog at 0.3 mg/kg, iv. It is filed as ADME, organism-based, Canis lupus familiaris. More on the design: time < 24 hr, dose 0.3 mg/kg, route intravenous. The conditions noted are these: plasma.
A short description of data set [11]: Oral bioavailability in cynomolgus monkey at 10 mg/kg. It is filed as ADME, organism-based, Macaca fascicularis. The conditions noted are these: in vivo.
Data set [12] can be described thus: Oral AUC in cynomolgus monkey at 10 mg/kg, po. It is filed as ADME, organism-based, Macaca fascicularis. More on the design: dose 10 mg/kg, route oral. The conditions noted are these: in vivo.
A short description of data set [13]: as §2. It is filed as ADME, organism-based, Canis lupus familiaris. The conditions noted are these: beagle, in vivo.
Data set [14] in a line: Oral AUC in Beagle dog at 10 mg/kg, po. More on the design: dose 10 mg/kg, route oral. It is filed as ADME, organism-based, Canis lupus familiaris. The conditions noted are these: in vivo.
Data set [15] can be described thus: AUC in CD1 mouse at 50 mg/kg, po. It is filed as ADME, organism-based. More on the design: dose 50 mg/kg, route oral. The conditions noted are these: plasma.
Data set [16] in a line: Oral AUC in Sprague-Dawley rat at 30 mg/kg, po. It is filed as ADME, organism-based. The conditions noted are these: in vivo. More on the design: dose 30 mg/kg, route oral.
Data set [17] deals with Ribosomal protein S6 kinase alpha-3 (Homo sapiens, UniProt P51812). As to the kind of experiment: Inhibition of RSK2.
Chain of Ribosomal protein S6 kinase alpha-3 (P51812 whole entry): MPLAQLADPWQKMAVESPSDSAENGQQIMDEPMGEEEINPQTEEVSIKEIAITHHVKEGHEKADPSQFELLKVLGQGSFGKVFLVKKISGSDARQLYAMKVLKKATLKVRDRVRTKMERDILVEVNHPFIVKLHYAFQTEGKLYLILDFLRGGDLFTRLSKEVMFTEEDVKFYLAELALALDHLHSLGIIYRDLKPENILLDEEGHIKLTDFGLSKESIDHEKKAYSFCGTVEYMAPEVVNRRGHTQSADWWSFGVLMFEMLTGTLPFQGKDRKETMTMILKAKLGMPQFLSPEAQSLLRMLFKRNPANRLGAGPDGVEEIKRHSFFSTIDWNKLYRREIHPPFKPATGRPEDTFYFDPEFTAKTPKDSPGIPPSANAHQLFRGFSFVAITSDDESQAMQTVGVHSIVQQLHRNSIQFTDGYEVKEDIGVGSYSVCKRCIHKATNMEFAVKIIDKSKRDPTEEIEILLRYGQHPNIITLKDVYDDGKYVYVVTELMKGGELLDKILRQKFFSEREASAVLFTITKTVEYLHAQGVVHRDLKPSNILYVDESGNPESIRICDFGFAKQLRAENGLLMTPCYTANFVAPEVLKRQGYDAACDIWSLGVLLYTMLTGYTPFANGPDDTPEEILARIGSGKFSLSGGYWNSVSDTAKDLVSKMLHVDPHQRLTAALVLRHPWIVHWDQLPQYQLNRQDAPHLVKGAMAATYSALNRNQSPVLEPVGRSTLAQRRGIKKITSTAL
In data set [18] the target is Tyrosine-protein kinase JAK2 (Homo sapiens, UniProt O60674). As to the kind of experiment: Inhibition of JAK2.
Chain of Tyrosine-protein kinase JAK2 (O60674 whole entry): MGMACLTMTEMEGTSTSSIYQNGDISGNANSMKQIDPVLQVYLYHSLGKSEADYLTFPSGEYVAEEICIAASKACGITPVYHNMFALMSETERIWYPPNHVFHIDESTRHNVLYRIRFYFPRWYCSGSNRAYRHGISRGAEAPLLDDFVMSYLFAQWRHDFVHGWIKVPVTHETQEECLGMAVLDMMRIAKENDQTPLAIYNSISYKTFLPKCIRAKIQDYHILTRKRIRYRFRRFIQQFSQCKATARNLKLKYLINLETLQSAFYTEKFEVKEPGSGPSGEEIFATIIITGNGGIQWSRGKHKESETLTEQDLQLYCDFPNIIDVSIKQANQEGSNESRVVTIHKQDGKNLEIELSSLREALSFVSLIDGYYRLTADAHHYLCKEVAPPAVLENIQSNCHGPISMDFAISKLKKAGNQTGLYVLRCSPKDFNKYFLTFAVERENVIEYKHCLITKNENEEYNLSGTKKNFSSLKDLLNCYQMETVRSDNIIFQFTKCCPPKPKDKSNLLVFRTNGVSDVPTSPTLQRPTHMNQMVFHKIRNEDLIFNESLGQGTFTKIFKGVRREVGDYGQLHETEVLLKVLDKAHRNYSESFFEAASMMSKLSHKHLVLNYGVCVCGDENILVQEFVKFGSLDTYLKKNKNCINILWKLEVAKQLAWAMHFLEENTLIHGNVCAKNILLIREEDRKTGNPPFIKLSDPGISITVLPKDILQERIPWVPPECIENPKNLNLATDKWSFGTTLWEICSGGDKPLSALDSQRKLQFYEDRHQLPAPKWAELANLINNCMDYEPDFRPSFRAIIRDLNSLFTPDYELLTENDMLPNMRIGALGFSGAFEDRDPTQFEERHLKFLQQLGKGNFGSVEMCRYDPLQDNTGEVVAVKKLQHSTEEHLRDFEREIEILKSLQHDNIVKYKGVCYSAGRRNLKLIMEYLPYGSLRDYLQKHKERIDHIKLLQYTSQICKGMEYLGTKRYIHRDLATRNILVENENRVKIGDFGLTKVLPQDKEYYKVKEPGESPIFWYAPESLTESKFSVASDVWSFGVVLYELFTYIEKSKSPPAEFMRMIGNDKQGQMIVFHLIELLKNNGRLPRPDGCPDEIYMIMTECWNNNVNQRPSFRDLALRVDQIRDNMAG
For data set [19], the target named is Tyrosine-protein kinase Lck (Homo sapiens, UniProt P06239). Nature of the data set: Inhibition of LCK.
Chain of Tyrosine-protein kinase Lck (P06239 whole entry): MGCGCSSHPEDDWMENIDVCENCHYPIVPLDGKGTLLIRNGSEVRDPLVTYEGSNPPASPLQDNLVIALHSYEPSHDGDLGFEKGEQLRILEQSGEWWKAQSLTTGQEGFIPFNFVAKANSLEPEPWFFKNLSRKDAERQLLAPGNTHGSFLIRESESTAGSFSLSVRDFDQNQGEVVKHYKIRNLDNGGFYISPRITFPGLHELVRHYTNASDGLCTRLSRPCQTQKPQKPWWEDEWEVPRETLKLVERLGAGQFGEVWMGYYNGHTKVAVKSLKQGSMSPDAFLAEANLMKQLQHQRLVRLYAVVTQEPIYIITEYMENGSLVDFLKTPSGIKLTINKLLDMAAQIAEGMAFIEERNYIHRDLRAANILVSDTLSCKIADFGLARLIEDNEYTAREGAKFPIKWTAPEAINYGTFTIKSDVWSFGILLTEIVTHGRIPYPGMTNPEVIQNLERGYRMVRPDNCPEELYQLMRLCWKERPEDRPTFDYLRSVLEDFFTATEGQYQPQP

The term inhibition in vivo denotes the change of the read-out against control, counted positive when it falls. The clearance is the volume of plasma or blood freed of the substance per unit of time. A word on the AUC: it is concentration integrated over time. `Cl.[2H]C([2H])(c1cc(Nc2nc(C)cn3c(-c4cn[nH]c4)cnc23)sn1)N1CCC(F)(F)C1` showed an inhibition in vivo at 100 mg/kg in the data set on Mus musculus of 83%. Also, the clearance in data set [1] was 0.252 L/h/kg; in data set [3], 0.27 L/h/kg. The area under the curve (AUC) in the data set on Canis familiaris [2] came to 3100 nM·h; in the data set with Canis familiaris [4], 9000 nM·h. The compound also came in with a F with Canis familiaris [5] of 33%.
Usually AUC(0-t) stands for the area under the concentration-time curve up to a stated or last time point. A word on the bioavailability: it is the share of a dose that reaches the circulation, judged against a reference dose that is usually intravenous. Take `Cc1cn2c(-c3cn[nH]c3)cnc2c(Nc2cc(CN3CCC(F)(F)C3)ns2)n1.Cl`: the clearance in data set [6] was found to be 1.08 L/h/kg; in data set [9] it was 1.86 L/h/kg. In addition, the AUC(0-t) at 24 h in data set [7] worked out at 700 nM·h; in data set [8] it was 2600 nM·h; in data set [10], 400 nM·h. Also, the bioavailability in [11] amounted to 2%; in [13] it was 20%. Moreover, the AUC in data set [12] turned out to be 800 nM·h; in [14] it was 2600 nM·h; in data set [15], 9400 nM·h; in [16], 6900 nM·h.
By IC50 is commonly meant the midpoint of a concentration-inhibition curve. `CCN(Cc1cc(Nc2nc(C)cn3c(-c4cn[nH]c4)cnc23)sn1)C(C)(C)CO`: the IC50 in data set [17] is above 0.1 µM; in data set [18] it was above 0.1 µM; in data set [19], below 0.001 µM.

The values above are taken from ChEMBL document CHEMBL1649074, “Aurora kinase inhibitors based on the imidazo[1,2-a]pyrazine core: fluorine and deuterium incorporation improve oral absorption and exposure” (J Med Chem, 2011).
